Experimental data as given in patent US20230355644A1, “ACTIVE INGREDIENTS AND DRUGS FOR THE THERAPY OF VIRAL DISEASES, ESPECIALLY CORONA INFECTIONS, ESPECIALLY COVID-19” (Creative Therapeutics GmbH, priority 2020, published 2023).
Where two headings read alike, the source gives them in different places.

Columns and labels:
[1] = tested on: HI-viruses; assay: EASY-HIT assay; format: cell-based
[2] = tested on: SARS-CoV-2; assay: therapeutic effect against SARS-CoV-2 infection in mouse model; format: in vivo; conditions: K18-hACE2 transgenic mice; intra-peritoneal 150 mg/kg 30 minutes before and 500 mg/kg three hours after infection; two days post infection
Experimental: Studies of the Therapeutic Effect in the Mouse Model • To investigate the therapeutic effect of compound (VI-A) against SARS-CoV-2 infection in mouse model, K18-hACE2 transgenic mice were used. The viruses used were a German isolate of SARS-CoV-2. The study was conducted as a feasibility study with two groups (test group, control group) based on six mice each, i.e. a total of 12 animals. The two groups of mice were mildly anesthetized by inhalation of 3% isoflurane and intranasally inoculated with 300 KWSIU (FFU) of SARS-CoV-2. Treatment with the compound (VI-A) was performed by intra-peritoneal injection or application. Treatment of the first group began 30 minutes before infection with a compound concentration or dosage of 150 mg/kg. In addition, three hours after infection, the test mice were administered another 500 mg/kg of the compound (dissolved in 100 μl total volume of simply concentrated PBS buffer with pH 7.4). In the second group (positive control or control group), the mice were infected equally but treated with PBS buffer alone without the addition of diphenyl derivatives or triazenes (sham treatment). Two days post infection, the animals were euthanized. The clinical score (“clinical score”), comprising the recording of weight and clinical signs, of the animals was determined. To determine the success of therapy, the viral load in the lungs was determined by qPCR.

[3] = tested on: SARS-CoV-2; format: cell-based; conditions: Caco-2 cells; for decrease in viral load versus untreated cells (100%): strongest dilution 1/4000 (25 μg/ml)
[4] = tested on: SARS-CoV-2; format: cell-based; conditions: Vero-E6 cells; dilutions 1/4000 to 1/500; FIGS. 3A and 3B
[5] = tested on: UWB1,289 ovarian cancer cells; assay: whole transcriptome sequencing (RNA-Seq) of treated ovarian cancer cells; format: cell-based; conditions: 24 hours; for CDKN1A transcription / DNA repair systems (MMR, BER, NER, ATM/ATR, HR) down-regulated at the transcription level / changes in the transcriptome versus non-treated controls (PCA plot, number of differentially transcribed genes) / expression of CDK family genes / CDK proteins / expression of DNA repair enzymes / transcripts of DNA repair systems: 1,000 μM compound (IV-A3) or 40 μM compound (III-A)
[6] = tested on: COVID-19; conditions: in vivo; cited from earlier work
[7] = dilutions 1/4000 to 1/500, FIGS. 2A and 2B

CN(C)/N=N/c1ccc(C(=O)c2ccc(OCCC(=O)O)cc2)cc1 [compound (VIII-A)]
inhibitory effect on HI-viruses [1]: first inhibitory effect | viral load in the lungs by qPCR versus positive control group [2]: significantly reduced viral load in the lungs | decrease in viral load in treated versus untreated cells ([3]; dilution of 1/500 (1000 μg/ml)): best results in terms of viral load decrease | decrease in viral load in treated versus untreated cells [3, 7]: Particularly good results | decrease in viral load in treated versus untreated cells [4]: greatest decrease in viral load

CN(C)/N=N/c1ccc(C(=O)c2ccc(O)cc2)cc1 [compound (III-A)]
CDKN1A transcription [5]: consistent upregulation | DNA repair systems (MMR, BER, NER, ATM/ATR, HR) down-regulated at the transcription level [5]: −1.09 log 2FC | changes in the transcriptome versus non-treated controls (PCA plot, number of differentially transcribed genes) [5]: sufficient change in the transcriptome | expression of CDK family genes / CDK proteins [5]: downregulation | expression of DNA repair enzymes / transcripts of DNA repair systems [5]: downregulation

CN(C)/N=N/c1ccc(C(=O)c2ccc(OCCC(=O)NCC(=O)O)cc2)cc1 [compound (VI-A)]
inhibitory effect on HI-viruses [1]: first inhibitory effect | histological examination of the lung tissue versus control group [2]: significantly reduced incidence of infection | viral load in the lungs by qPCR versus positive control group [2]: significantly lower | decrease in viral load in treated versus untreated cells [4]: significant decrease in viral load

CN(C)N=Nc1ccc(C(=O)c2ccc(OS(=O)(=O)[O-])cc2)cc1.[Na+] [compound (IV-A3)]
CDKN1A transcription [5]: strongly induced | DNA repair systems (MMR, BER, NER, ATM/ATR, HR) down-regulated at the transcription level [5]: −1.09 log 2FC | changes in the transcriptome versus non-treated controls (PCA plot, number of differentially transcribed genes) [5]: more pronounced changes in the transcriptome than compound (III-A) | expression of CDK family genes / CDK proteins [5]: marked down regulation | expression of DNA repair enzymes / transcripts of DNA repair systems [5]: extensive downregulation | induction of CDKN1A ([5]; 1,000 μM compound (IV-A3), genes differentially expressed in both UWB1,289 cell lines): 4.49 log 2FC | expression of cadherin cell adhesion molecule genes, particularly CDH6 ([5]; 1,000 μM): downregulated | expression of DNA dealkylation pathway proteins (APEX1, TET1, ALKBH2) ([5]; 1,000 μM, both cell lines): consistently downregulated

CCN(CC)CCCC(C)Nc1ccnc2cc(Cl)ccc12 (stereo not drawn) [Chloroquine]
efficacy in COVID-19 [6]: no evidence of efficacy

CN(C)/N=N/c1ccc(C(=O)c2ccc(O)cc2)cc1 [compound (IV-B)]
inhibitory effect on HI-viruses [1]: first inhibitory effect | viral load in the lungs by qPCR versus positive control group [2]: significantly reduced viral load in the lungs | decrease in viral load in treated versus untreated cells [3, 7]: Particularly good results | decrease in viral load versus untreated cells (100%) ([3]; FIG. 2A): 50% | decrease in viral load versus untreated cells (100%) ([3]; FIG. 2B): 40% | decrease in viral load in treated versus untreated cells [4]: significant decrease in viral load

CN(C)/N=N/c1ccc(C(=O)c2ccc(OS(=O)(=O)O)cc2)cc1 [compound (IV-A)]
inhibitory effect on HI-viruses [1]: first inhibitory effect | viral load in the lungs by qPCR versus positive control group [2]: significantly reduced viral load in the lungs

Tocilizumab: monoclonal antibody approved for the treatment of various forms of rheumatoid arthritis and cytokine release syndrome
efficacy in COVID-19 [6]: ineffective

CCN(CCO)CCCC(C)Nc1ccnc2cc(Cl)ccc12 (stereo not drawn) [hydroxychloroquine]
efficacy in COVID-19 [6]: no evidence of efficacy
